Laboratory results as given in patent US10202361B2, “Pyridazinones as herbicides” (E I DU PONT DE NEMOURS AND COMPANY, priority 2014, dated 2019).

Tests used:
Assay in all cases: Test E pre-/postemergence greenhouse herbicide test
Assay type in all cases: in vivo
[1] = tested on: crabgrass, Brazil (Brazilian crabgrass, Digitaria horizontalis); settings: scale 0 to 100
Procedure, shortened: (§1)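 Visual control ratings on a 0 to 100 scale (100 = complete control) were made 14 to 21 d after treatment, relative to untreated controls. Test chemicals, formulated with surfactant in a non-phytotoxic solvent, were applied to seeded silt loam soil (preemergence) and to 2 to 18 cm plants (postemergence).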

[2] = tested on: field bindweed (Convolvulus arvensis); settings: scale 0 to 100
Procedure, shortened: as §1

[3] = tested on: foxtail, green (green foxtail, Setaria viridis); settings: Preemergence, scale 0 to 100
Procedure, shortened: as §1

[4] = tested on: johnsongrass (Sorghum halepense); settings: Preemergence, scale 0 to 100
Procedure, shortened: as §1

[5] = tested on: kochia (Kochia scoparia); settings: Preemergence, scale 0 to 100
Procedure, shortened: as §1

[6] = tested on: panicum, fall (fall panicum, Panicum dichotomiflorum); settings: scale 0 to 100
Procedure, shortened: as §1

[7] = tested on: ragweed (common ragweed, Ambrosia elatior); settings: Preemergence, scale 0 to 100
Procedure, shortened: as §1

[8] = tested on: soybean (Glycine max); settings: scale 0 to 100
Procedure, shortened: as §1

With `COc1cc(=O)n(-c2ccc(C(F)(F)F)cc2)nc1Cc1ccnc(C(F)(F)F)c1` [Compound 16, 5-methoxy-2-[4-(trifluoromethyl)phenyl]-6-[[2-(trifluoromethyl)-4-pyridinyl]methyl]-3(2H)-pyridazinone] the “Plant response rating: Crabgrass, Brazil” value ([1]; Postemergence, 62 g ai/ha) was 20, the “Plant response rating: Crabgrass, Brazil” value ([1]; Postemergence, 125 g ai/ha) was 30 and the “Plant response rating: Crabgrass, Brazil” value ([1]; Postemergence, 250 g ai/ha) was 50. The “Plant response rating: Crabgrass, Brazil” value ([1]; Preemergence, 62 g ai/ha) was 100, the “Plant response rating: Crabgrass, Brazil” value ([1]; Preemergence, 125 g ai/ha) was 100 and the “Plant response rating: Crabgrass, Brazil” value ([1]; Preemergence, 250 g ai/ha) was 100. The “Plant response rating: Field Bindweed” value ([2]; Postemergence, 62 g ai/ha) was 50, the “Plant response rating: Field Bindweed” value ([2]; Postemergence, 125 g ai/ha) was 65 and the “Plant response rating: Field Bindweed” value ([2]; Postemergence, 250 g ai/ha) was 75. For the same compound, the “Plant response rating: Field Bindweed” value ([2]; Preemergence, 62 g ai/ha) was 5, the “Plant response rating: Field Bindweed” value ([2]; Preemergence, 125 g ai/ha) was 30 and the “Plant response rating: Field Bindweed” value ([2]; Preemergence, 250 g ai/ha) was 100. For the same compound, the “Plant response rating: Foxtail, Green” value ([3]; 62 g ai/ha) was 50, the “Plant response rating: Foxtail, Green” value ([3]; 125 g ai/ha) was 95 and the “Plant response rating: Foxtail, Green” value ([3]; 250 g ai/ha) was 100. For the same compound, the “Plant response rating: Johnsongrass” value ([4]; 62 g ai/ha) was 35, the “Plant response rating: Johnsongrass” value ([4]; 125 g ai/ha) was 60 and the “Plant response rating: Johnsongrass” value ([4]; 250 g ai/ha) was 60. The “Plant response rating: Kochia” value ([5]; 62 g ai/ha) was 98, the “Plant response rating: Kochia” value ([5]; 125 g ai/ha) was 98 and the “Plant response rating: Kochia” value ([5]; 250 g ai/ha) was 98. The “Plant response rating: Panicum, Fall” value ([6]; Postemergence, 62 g ai/ha) was 30, the “Plant response rating: Panicum, Fall” value ([6]; Postemergence, 125 g ai/ha) was 40 and the “Plant response rating: Panicum, Fall” value ([6]; Postemergence, 250 g ai/ha) was 50. For the same compound, the “Plant response rating: Panicum, Fall” value ([6]; Preemergence, 62 g ai/ha) was 50, the “Plant response rating: Panicum, Fall” value ([6]; Preemergence, 125 g ai/ha) was 90 and the “Plant response rating: Panicum, Fall” value ([6]; Preemergence, 250 g ai/ha) was 100. For the same compound, the “Plant response rating: Ragweed” value ([7]; 62 g ai/ha) was 0, the “Plant response rating: Ragweed” value ([7]; 125 g ai/ha) was 0 and the “Plant response rating: Ragweed” value ([7]; 250 g ai/ha) was 95. The “Plant response rating: Soybean” value ([8]; Postemergence, 62 g ai/ha) was 35, the “Plant response rating: Soybean” value ([8]; Postemergence, 125 g ai/ha) was 50 and the “Plant response rating: Soybean” value ([8]; Postemergence, 250 g ai/ha) was 85. For the same compound, the “Plant response rating: Soybean” value ([8]; Preemergence, 62 g ai/ha) was 0, the “Plant response rating: Soybean” value ([8]; Preemergence, 125 g ai/ha) was 20 and the “Plant response rating: Soybean” value ([8]; Preemergence, 250 g ai/ha) was 50.
